The NIST ThermoML archive (doi:10.1016/j.jct.2006.05.004)
Numbers after ± are expanded uncertainties.

Legend:
[1] = xn = mol fraction of the nth substance listed; details: 298.15 K, 101 kPa, Liquid
[2] = excess molar enthalpy (molar enthalpy of mixing); xn = mol fraction of the nth substance listed; details: 298.15 K, 101 kPa, Liquid

BrCCCCBr [1,4-dibromobutane] + CCCCC(=O)OC
Details | excess molar enthalpy [kJ/mol] | mass density [kg/m3]
[1], x2 = 0.0627 | – | 1757.47 ± 6.4
[1], x2 = 0.1071 | – | 1711.91 ± 6
[1], x2 = 0.1637 | – | 1654.55 ± 5.4
[1], x2 = 0.2171 | – | 1601.18 ± 4.9
[1], x2 = 0.3252 | – | 1495.18 ± 4
[1], x2 = 0.4423 | – | 1383.13 ± 3.1
[1], x2 = 0.5031 | – | 1326.06 ± 2.7
[1], x2 = 0.621 | – | 1217.29 ± 2
[1], x2 = 0.6839 | – | 1160.44 ± 1.6
[1], x2 = 0.7415 | – | 1108.9 ± 1.3
[1], x2 = 0.8021 | – | 1055.26 ± 1.1
[1], x2 = 0.9296 | – | 944.62 ± 0.91
[2], x2 = 0.0592 | 0.0339 ± 0.0021 | –
[2], x2 = 0.1366 | 0.0579 ± 0.0025 | –
[2], x2 = 0.2206 | 0.0724 ± 0.0027 | –
[2], x2 = 0.3061 | 0.0674 ± 0.0026 | –
[2], x2 = 0.3802 | 0.0521 ± 0.0024 | –
[2], x2 = 0.4461 | 0.0237 ± 0.0019 | –
[2], x2 = 0.4526 | 0.0188 ± 0.0019 | –
[2], x2 = 0.4992 | -0.0052 ± 0.0016 | –
[2], x2 = 0.5566 | -0.0287 ± 0.002 | –
[2], x2 = 0.6213 | -0.0448 ± 0.0022 | –
[2], x2 = 0.6979 | -0.0485 ± 0.0023 | –
[2], x2 = 0.7947 | -0.0483 ± 0.0023 | –
[2], x2 = 0.9001 | -0.0314 ± 0.002 | –

BrCCCCBr [1,4-dibromobutane] + COC(C)=O
Details | excess molar enthalpy [kJ/mol] | mass density [kg/m3]
[1], x2 = 0.0837 | – | 1770.14 ± 6.4
[1], x2 = 0.1689 | – | 1713.04 ± 5.8
[1], x2 = 0.2373 | – | 1664.79 ± 5.3
[1], x2 = 0.3235 | – | 1601.13 ± 4.6
[1], x2 = 0.3783 | – | 1558.38 ± 4.2
[1], x2 = 0.4433 | – | 1505.87 ± 3.8
[1], x2 = 0.5073 | – | 1451.51 ± 3.4
[1], x2 = 0.5682 | – | 1397.42 ± 3
[1], x2 = 0.6216 | – | 1347.79 ± 2.7
[1], x2 = 0.6771 | – | 1293.95 ± 2.3
[1], x2 = 0.7431 | – | 1226.93 ± 1.9
[1], x2 = 0.8273 | – | 1135.92 ± 1.4
[1], x2 = 0.9151 | – | 1033.42 ± 0.94
[1], x2 = 0.9603 | – | 977.5 ± 0.87
[2], x2 = 0.0848 | 0.181 ± 0.0044 | –
[2], x2 = 0.1755 | 0.31 ± 0.0064 | –
[2], x2 = 0.2635 | 0.4 ± 0.0077 | –
[2], x2 = 0.3449 | 0.456 ± 0.0086 | –
[2], x2 = 0.4161 | 0.487 ± 0.0091 | –
[2], x2 = 0.4816 | 0.493 ± 0.0092 | –
[2], x2 = 0.5389 | 0.48 ± 0.009 | –
[2], x2 = 0.5872 | 0.456 ± 0.0086 | –
[2], x2 = 0.6316 | 0.429 ± 0.0082 | –
[2], x2 = 0.6695 | 0.399 ± 0.0077 | –
[2], x2 = 0.7038 | 0.372 ± 0.0073 | –
[2], x2 = 0.755 | 0.319 ± 0.0065 | –
[2], x2 = 0.8095 | 0.26 ± 0.0056 | –
[2], x2 = 0.8632 | 0.192 ± 0.0046 | –
[2], x2 = 0.9128 | 0.132 ± 0.0036 | –
[2], x2 = 0.9584 | 0.0622 ± 0.0026 | –

BrCCCCBr [1,4-dibromobutane] + COC=O
Details | excess molar enthalpy [kJ/mol] | mass density [kg/m3]
[1], x2 = 0.0901 | – | 1776.76 ± 6.5
[1], x2 = 0.1948 | – | 1721.83 ± 5.8
[1], x2 = 0.283 | – | 1670.26 ± 5.2
[1], x2 = 0.3632 | – | 1619.15 ± 4.7
[1], x2 = 0.4351 | – | 1569.44 ± 4.2
[1], x2 = 0.5042 | – | 1517.68 ± 3.8
[1], x2 = 0.5678 | – | 1466.2 ± 3.4
[1], x2 = 0.6267 | – | 1414.75 ± 3
[1], x2 = 0.6804 | – | 1364.36 ± 2.7
[1], x2 = 0.7742 | – | 1267.13 ± 2.1
[1], x2 = 0.8172 | – | 1217.73 ± 1.8
[1], x2 = 0.8611 | – | 1164.21 ± 1.5
[1], x2 = 0.8985 | – | 1115.55 ± 1.3
[1], x2 = 0.937 | – | 1062.14 ± 1.1
[1], x2 = 0.9687 | – | 1015.8 ± 0.92
[2], x2 = 0.1163 | 0.395 ± 0.0077 | –
[2], x2 = 0.2218 | 0.635 ± 0.011 | –
[2], x2 = 0.3327 | 0.859 ± 0.015 | –
[2], x2 = 0.4395 | 0.985 ± 0.017 | –
[2], x2 = 0.518 | 1.02 ± 0.017 | –
[2], x2 = 0.581 | 1.01 ± 0.017 | –
[2], x2 = 0.5984 | 1.01 ± 0.017 | –
[2], x2 = 0.6591 | 0.945 ± 0.016 | –
[2], x2 = 0.7346 | 0.819 ± 0.014 | –
[2], x2 = 0.8107 | 0.648 ± 0.012 | –
[2], x2 = 0.8851 | 0.434 ± 0.0084 | –
[2], x2 = 0.9503 | 0.21 ± 0.005 | –

BrCCCCCBr [1,5-dibromopentane] + CCC(=O)OC
Details | excess molar enthalpy [kJ/mol] | mass density [kg/m3]
[1], x2 = 0.0841 | – | 1644.47 ± 5.5
[1], x2 = 0.1537 | – | 1602.6 ± 5
[1], x2 = 0.1671 | – | 1594.29 ± 5
[1], x2 = 0.2971 | – | 1510.79 ± 4.1
[1], x2 = 0.3661 | – | 1463.62 ± 3.7
[1], x2 = 0.4312 | – | 1417.3 ± 3.3
[1], x2 = 0.4903 | – | 1373.47 ± 3
[1], x2 = 0.609 | – | 1280.2 ± 2.3
[1], x2 = 0.6628 | – | 1235.27 ± 2
[1], x2 = 0.716 | – | 1189.3 ± 1.7
[1], x2 = 0.8143 | – | 1099.41 ± 1.2
[1], x2 = 0.864 | – | 1051.37 ± 1
[1], x2 = 0.9561 | – | 957.37 ± 0.88
[2], x2 = 0.0808 | 0.118 ± 0.0034 | –
[2], x2 = 0.1674 | 0.191 ± 0.0045 | –
[2], x2 = 0.2542 | 0.247 ± 0.0054 | –
[2], x2 = 0.3326 | 0.275 ± 0.0058 | –
[2], x2 = 0.4065 | 0.284 ± 0.006 | –
[2], x2 = 0.4708 | 0.279 ± 0.0059 | –
[2], x2 = 0.4974 | 0.272 ± 0.0058 | –
[2], x2 = 0.5293 | 0.263 ± 0.0056 | –
[2], x2 = 0.5381 | 0.26 ± 0.0056 | –
[2], x2 = 0.5791 | 0.24 ± 0.0053 | –
[2], x2 = 0.584 | 0.235 ± 0.0052 | –
[2], x2 = 0.6329 | 0.213 ± 0.0049 | –
[2], x2 = 0.6845 | 0.181 ± 0.0044 | –
[2], x2 = 0.7383 | 0.153 ± 0.0039 | –
[2], x2 = 0.7938 | 0.119 ± 0.0034 | –
[2], x2 = 0.8494 | 0.0847 ± 0.0029 | –
[2], x2 = 0.9053 | 0.0468 ± 0.0023 | –
[2], x2 = 0.955 | 0.0218 ± 0.0019 | –
